Experimental data taken from PubChem BioAssay (NCI).
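Growth conditions: 96-well plates. Treatment: test compound, 48 hours, 5 concentrations. Analysis: linear interpolation between bracketing concentrations; unreached endpoints set to highest concentration. TGI is the concentration that stops growth completely.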

Tests used:
Assay in all cases: NCI-60 cell line screen, 48 h
OVCAR-5 ovarian = tested on: OVCAR-5 ovarian
CCRF-CEM leukemia = tested on: CCRF-CEM leukemia
M19-MEL melanoma = tested on: M19-MEL melanoma
A549 NSCLC = tested on: A549 NSCLC
SF-295 CNS = tested on: SF-295 CNS
KM20L2 colon = tested on: KM20L2 colon
COLO 205 colon = tested on: COLO 205 colon
KM12 colon = tested on: KM12 colon
SNB-78 CNS = tested on: SNB-78 CNS
HCC-2998 colon = tested on: HCC-2998 colon
HCT-15 colon = tested on: HCT-15 colon
RXF-631 renal = tested on: RXF-631 renal
HCT-116 colon = tested on: HCT-116 colon
ACHN renal = tested on: ACHN renal
SF-539 CNS = tested on: SF-539 CNS
HOP-18 NSCLC = tested on: HOP-18 NSCLC
UO-31 renal = tested on: UO-31 renal
HOP-92 NSCLC = tested on: HOP-92 NSCLC
U251 CNS = tested on: U251 CNS
OVCAR-8 ovarian = tested on: OVCAR-8 ovarian
CAKI-1 renal = tested on: CAKI-1 renal
786-0 renal = tested on: 786-0 renal
SNB-19 CNS = tested on: SNB-19 CNS
SR leukemia = tested on: SR leukemia
SF-268 CNS = tested on: SF-268 CNS
MOLT-4 leukemia = tested on: MOLT-4 leukemia
NCI-H522 lung = tested on: NCI-H522 lung
TK-10 renal = tested on: TK-10 renal
K-562 leukemia = tested on: K-562 leukemia
SK-MEL-2 melanoma = tested on: SK-MEL-2 melanoma
UACC-62 melanoma = tested on: UACC-62 melanoma
NCI-H23 lung = tested on: NCI-H23 lung
NCI-H226 lung = tested on: NCI-H226 lung
DMS 114 small cell lung = tested on: DMS 114 small cell lung
SK-MEL-5 melanoma = tested on: SK-MEL-5 melanoma
IGROV1 ovarian = tested on: IGROV1 ovarian
RPMI-8226 leukemia = tested on: RPMI-8226 leukemia
M14 melanoma = tested on: M14 melanoma
MALME-3M melanoma = tested on: MALME-3M melanoma
SN12C renal = tested on: SN12C renal
DMS 273 small cell lung = tested on: DMS 273 small cell lung
OVCAR-4 ovarian = tested on: OVCAR-4 ovarian
LXFL 529 NSCLC = tested on: LXFL 529 NSCLC
EKVX NSCLC = tested on: EKVX NSCLC
RXF 393 renal = tested on: RXF 393 renal
UACC-257 melanoma = tested on: UACC-257 melanoma
SW-620 colon = tested on: SW-620 colon
LOX IMVI melanoma = tested on: LOX IMVI melanoma
SNB-75 CNS = tested on: SNB-75 CNS
XF 498 CNS = tested on: XF 498 CNS
NCI-H460 lung = tested on: NCI-H460 lung
HOP-62 NSCLC = tested on: HOP-62 NSCLC
A498 renal = tested on: A498 renal
HT29 colon = tested on: HT29 colon
DLD-1 colon = tested on: DLD-1 colon
SK-OV-3 ovarian = tested on: SK-OV-3 ovarian
OVCAR-3 ovarian = tested on: OVCAR-3 ovarian
HL-60(TB) leukemia = tested on: HL-60(TB) leukemia
SK-MEL-28 melanoma = tested on: SK-MEL-28 melanoma

COC(=O)C(=O)C(C(=O)C(=O)Nc1cc(C)ccc1C)c1nc2ccc(C(=O)c3ccccc3)cc2[nH]c1=O (centres undefined)
TGI (OVCAR-5 ovarian): > 100 µM | TGI (CCRF-CEM leukemia): > 100 µM | TGI (M19-MEL melanoma): > 100 µM | TGI (A549 NSCLC): > 100 µM | TGI (SF-295 CNS): > 100 µM | TGI (KM20L2 colon): > 100 µM | TGI (COLO 205 colon): > 100 µM | TGI (KM12 colon): > 100 µM | TGI (SNB-78 CNS): > 100 µM | TGI (HCC-2998 colon): > 100 µM | TGI (HCT-15 colon): > 100 µM | TGI (RXF-631 renal): > 100 µM | TGI (HCT-116 colon): > 100 µM | TGI (ACHN renal): > 100 µM | TGI (SF-539 CNS): > 100 µM | TGI (HOP-18 NSCLC): > 100 µM | TGI (UO-31 renal): > 100 µM | TGI (HOP-92 NSCLC): 91.8 µM | TGI (U251 CNS): > 100 µM | TGI (OVCAR-8 ovarian): > 100 µM | TGI (CAKI-1 renal): > 100 µM | TGI (786-0 renal): > 100 µM | TGI (SNB-19 CNS): > 100 µM | TGI (SR leukemia): > 100 µM | TGI (SF-268 CNS): > 100 µM | TGI (MOLT-4 leukemia): > 100 µM | TGI (NCI-H522 lung): > 100 µM | TGI (TK-10 renal): > 100 µM | TGI (K-562 leukemia): > 100 µM | TGI (SK-MEL-2 melanoma): > 100 µM | TGI (UACC-62 melanoma): > 100 µM | TGI (NCI-H23 lung): > 100 µM | TGI (NCI-H226 lung): > 100 µM | TGI (DMS 114 small cell lung): > 100 µM | TGI (SK-MEL-5 melanoma): > 100 µM | TGI (IGROV1 ovarian): > 100 µM | TGI (RPMI-8226 leukemia): > 100 µM | TGI (M14 melanoma): > 100 µM | TGI (MALME-3M melanoma): > 100 µM | TGI (SN12C renal): > 100 µM | TGI (DMS 273 small cell lung): > 100 µM | TGI (OVCAR-4 ovarian): > 100 µM | TGI (LXFL 529 NSCLC): > 100 µM | TGI (EKVX NSCLC): > 100 µM | TGI (RXF 393 renal): > 100 µM | TGI (UACC-257 melanoma): > 100 µM | TGI (SW-620 colon): > 100 µM

CCN=C(C#N)NCC
TGI (LOX IMVI melanoma): > 100 µM | TGI (OVCAR-5 ovarian): > 100 µM | TGI (CCRF-CEM leukemia): > 100 µM | TGI (M19-MEL melanoma): > 100 µM | TGI (A549 NSCLC): > 100 µM | TGI (SF-295 CNS): > 100 µM | TGI (KM20L2 colon): > 100 µM | TGI (COLO 205 colon): > 100 µM | TGI (KM12 colon): > 100 µM | TGI (SNB-78 CNS): > 100 µM | TGI (HCC-2998 colon): > 100 µM | TGI (HCT-15 colon): > 100 µM | TGI (HCT-116 colon): > 100 µM | TGI (ACHN renal): > 100 µM | TGI (SF-539 CNS): > 100 µM | TGI (HOP-18 NSCLC): > 100 µM | TGI (UO-31 renal): > 100 µM | TGI (SNB-75 CNS): > 100 µM | TGI (HOP-92 NSCLC): > 100 µM | TGI (U251 CNS): > 100 µM | TGI (OVCAR-8 ovarian): > 100 µM | TGI (CAKI-1 renal): > 100 µM | TGI (XF 498 CNS): > 100 µM | TGI (786-0 renal): > 100 µM | TGI (NCI-H460 lung): > 100 µM | TGI (SNB-19 CNS): > 100 µM | TGI (SR leukemia): > 100 µM | TGI (SF-268 CNS): > 100 µM | TGI (MOLT-4 leukemia): > 100 µM | TGI (NCI-H522 lung): > 100 µM | TGI (TK-10 renal): > 100 µM | TGI (K-562 leukemia): > 100 µM | TGI (SK-MEL-2 melanoma): > 100 µM | TGI (UACC-62 melanoma): > 100 µM | TGI (NCI-H23 lung): > 100 µM | TGI (NCI-H226 lung): > 100 µM | TGI (DMS 114 small cell lung): 92 µM | TGI (SK-MEL-5 melanoma): > 100 µM | TGI (HOP-62 NSCLC): > 100 µM | TGI (IGROV1 ovarian): > 100 µM | TGI (RPMI-8226 leukemia): > 100 µM | TGI (M14 melanoma): > 100 µM | TGI (MALME-3M melanoma): > 100 µM | TGI (SN12C renal): > 100 µM | TGI (A498 renal): > 100 µM | TGI (HT29 colon): > 100 µM | TGI (DLD-1 colon): > 100 µM | TGI (DMS 273 small cell lung): > 100 µM | TGI (SK-OV-3 ovarian): > 100 µM | TGI (OVCAR-4 ovarian): > 100 µM | TGI (LXFL 529 NSCLC): > 100 µM | TGI (EKVX NSCLC): > 100 µM | TGI (UACC-257 melanoma): > 100 µM | TGI (OVCAR-3 ovarian): > 100 µM | TGI (HL-60(TB) leukemia): > 100 µM | TGI (SK-MEL-28 melanoma): > 100 µM | TGI (SW-620 colon): 37.5 µM
